Where “and” joins values, the source holds several entries; their conditions need not be identical. Identical values can stand only once. Entries after “also recorded” stand apart in the source; their conditions may differ. Counter-ions that a name gives are not always drawn.
Tests used:
[1] = system: Colo205 human colorectal cancer cells; assay: Growth, treatment and resection of Colo205 tumor xenografts in nude mice (mass, H&E); type: in vivo
Description: (§1) Growth and treatment of human tumor xenografts—Female nude mice (Charles River Laboratories, Hollister Calif.) were maintained in accordance with the guide for the Care and Use of Laboratory Animals, Colo205 human colorectal cancer cells were harvested, resuspended in HBSS, and injected s.c. into flanks (5×10^6 cells/flank) of 6-8 week old mice. […] Twenty-four hours following the final dose of CPT-11 or saline, tumors were resected from the animals. […]. Half of each tumor was frozen immediately in liquid nitrogen for subsequent extraction of RNA and the other half was fixed in 10% neutral buffer formalin overnight and then transferred 24 hours later into 70% ethanol for sectioning, microscopic analysis and analysis by in situ hybridization. Tumor xenografts of the DLD-1 colorectal cell line were treated and prepared in essentially the same manner. The masses of the DLD-1 colorectal tumor xenografts at time of resection were 0.24, 0.10 and 0.21 for saline controls and 0.21, 0.1 and 0.12 for CPT-11-treated tumors.

Colo205 and DLD-1 cells = Colo205 and DLD-1 cells treated in vitro with CPT-11, expression of genes of Table I; type: cell-based, human; conditions: data not shown
Description: Cell lines-Colo205, HCT116, HT29 (ATCC Nos. CCL222, CCL221, CCL247, HTB38, respectively) are human colorectal adenocarcinoma cell lines. 293 is a human immortalized embryonic kidney cell line (ATCC CRL573). PC-3 is a human prostate adenocarcinoma cell line (ATCC CRL1435) and HT1080 is a human fibrosarcoma cell line (ATCC CCL-121). PC-3 stable cell lines were generated by transfection (Effectene, Qiagen) with a CMV-driven vector encoding either an NH2-terminal gD epitope-tagged form of LY6D/[…] or an empty vector and selected in 400 μg/ml G418 (Geneticin, Life Technologies, Inc.). Growth conditions were according to American Type Culture Collection (ATCC, Manassas, Va.) guidelines. For all cell lines, CPT11 treatments were done in 10 cm dishes for the indicated timepoints. Cells were harvested and RNA was prepared using RNeasy kit (Qiagen, Hilden, Germany). TaqMan® real-time quantitative PCR analysis was performed as described below.

LY6D/E48 transcript = assay: LY6D/E48 mRNA induction in cultured cell lines by CPT-11 (real-time PCR); type: cell-based, human; conditions: for LY6D/E48 transcript: monohydrochloride, trihydrate
Description: Cell lines-Colo205, HCT116, HT29 (ATCC Nos. CCL222, CCL221, CCL247, HTB38, respectively) are human colorectal adenocarcinoma cell lines. 293 is a human immortalized embryonic kidney cell line (ATCC CRL573). PC-3 is a human prostate adenocarcinoma cell line (ATCC CRL1435) and HT1080 is a human fibrosarcoma cell line (ATCC CCL-121). PC-3 stable cell lines were generated by transfection (Effectene, Qiagen) with a CMV-driven vector encoding either an NH2-terminal gD epitope-tagged form of LY6D/E48 or an empty vector and selected in 400 μg/ml G418 (Geneticin, Life Technologies, Inc.). Growth conditions were according to American Type Culture Collection (ATCC, Manassas, Va.) guidelines. For all cell lines, CPT11 treatments were done in 10 cm dishes for the indicated timepoints. Cells were harvested and RNA was prepared using RNeasy kit (Qiagen, Hilden, Germany). TaqMan® real-time quantitative PCR analysis was performed as described below.
(§2) Real-Time PCR (TaqMan®)'The source of RNA used for RT-PCR analysis was the same as that used for the preparation of probes for oligonucleotide array analysis. Quantitative Reverse Transcriptase-PCR (RT-PCR) was performed using TaqMan® assay reagents from Perkin-Elmer, Applied Biosystems, 50 μl RT-PCR reactions consisted of 5 μl 10× TaqMan Buffer A, 300 μM of each dNTP, 5 mM MgCl2, 10 unites of RNase inhibitor, 12.5 units of MuLV Reverse Transcriptase, 1.25 units of AmpliTaq Gold DNA Polymerase, 200 nM probe, 500 nM primers and 100 ng RNA. Reaction conditions consisted of reverse transcription at 48° C. for 10 minutes, denaturation at 95° C. for 10 minutes, and 40 thermal cycles of 95° C. for 25 seconds, and 65° C. for 1 min. Reaction products were analyzed on 4-agarose gels (Invitrogen). Fold-induction for each gene of interest was determined using the ΔΔCt method and the result is presented relative to both GAPDH and actin in each figure. The following specific probes and primer sets were used for MFGE8 (Acc#U58516): forward primer: […] (SEQ ID NO: 1), reverse primer: […] (SEQ ID NO: 2), and probe: […] (SEQ ID NO: 3); GPC1 (Acc#X54232): forward primer: […] (SEQ ID NO: 4), reverse primer: […] (SEQ ID NO: 5), and probe: […] (SEQ ID NO:6); AQP3 (Acc# N74607): forward primer: […] (SEQ ID NO: 7), reverse primer: […] (SEQ ID NO: 8), and probe, […] (SEQ ID NO: 9); CDH17 (Acc#83228): forward primer: […] (SEQ ID NO: 10), reverse primer: […] (SEQ ID NO: 11), and probe: […] (SEQ ID NO: 12); Ly6D/E48 (Acc#Y12642): forward primer: […] (SEQ ID NO: 13); reverse primer: […] (SEQ ID NO: 14); and probe: […] (SEQ ID NO: 15); and Ly6E/SCA-2 (Acc# U66711): forward primer: […] (SEQ ID NO: 16); reverse primer: […] (SEQ ID NO: 17); and probe: […] (SEQ ID NO: 18).

[2] = system: Colo205 human tumor xenografts; assay: In vivo efficacy study, Colo205 xenografts in nude mice; conditions: CPT-11 alone, 80 mg/kg IP day 0, 4 & 8; regrowth at rapid rate after last administration
[3] = system: DLD-1 colorectal tumor xenografts; assay: Growth, treatment and resection of DLD-1 tumor xenografts in nude mice; type: in vivo, human; conditions: DLD-1 xenografts; CPT-11-treated; at time of resection; monohydrochloride, trihydrate
Description: as §1

Colo205 tumors = assay: Real-time PCR (TaqMan) of RNA from Colo205 xenograft tumors; type: in vivo, human
Procedure: Real-Time PCR (TaqMan®)'The source of RNA used for RT-PCR analysis was the same as that used for the preparation of probes for oligonucleotide array analysis. Quantitative Reverse Transcriptase-PCR (RT-PCR) was performed using TaqMan® assay reagents from Perkin-Elmer, Applied Biosystems, 50 μl RT-PCR reactions consisted of 5 μl 10× TaqMan Buffer A, 300 μM of each dNTP, 5 mM MgCl2, 10 unites of RNase inhibitor, 12.5 units of MuLV Reverse Transcriptase, 1.25 units of AmpliTaq Gold DNA Polymerase, 200 nM probe, 500 nM primers and 100 ng RNA. Reaction conditions consisted of reverse transcription at 48° C. for 10 minutes, denaturation at 95° C. for 10 minutes, and 40 thermal cycles of 95° C. for 25 seconds, and 65° C. for 1 min. Reaction products were analyzed on 4-agarose gels (Invitrogen). Fold-induction for each gene of interest was determined using the ΔΔCt method and the result is presented relative to both GAPDH and actin in each figure. The following specific probes and primer sets were used for MFGE8 (Acc#U58516): forward primer: […] (SEQ ID NO: 1), reverse primer: […] (SEQ ID NO: 2), and probe: […] (SEQ ID NO: 3); GPC1 (Acc#X54232): forward primer: […] (SEQ ID NO: 4), reverse primer: […] (SEQ ID NO: 5), and probe: […] (SEQ ID NO:6); AQP3 (Acc# N74607): forward primer: […] (SEQ ID NO: 7), reverse primer: […] (SEQ ID NO: 8), and probe, […] […]

mouse colon = assay: Oligonucleotide array analysis (Affymetrix Mu74Av2) of normal colon/intestine of tumor-bearing mice treated with CPT-11 or saline; type: in vivo
E48/Ly-6D = E48/Ly-6D surface expression on Colo205 cells after CPT-11 (FACS, immunofluorescence); type: cell-based, human
Procedure: For flow cytometry, cells were grown to 90% confluence and removed from plates using 2 mM EDTA in PBS. Cells were washed and resuspended in FACS buffer (PBS with 1% BSA) and incubated for 60 min with anti-LY6D/[…] monoclonal antibody 15A5 or 17H7 or anti-gd antibody (Genentech, Inc.) followed by 60 min with anti-mouse secondary antibody conjugated to PE. Analysis was performed on FACS scan.

normal colon tissue = assay: Real-time PCR with mouse-specific primers on normal colon of CPT-11 treated mice; type: in vivo; conditions: normal colon of CPT-11 treated vs control mice; data not shown
Procedure: Real-Time PCR (TaqMan®)'The source of RNA used for RT-PCR analysis was the same as that used for the preparation of probes for oligonucleotide array analysis. Quantitative Reverse Transcriptase-PCR (RT-PCR) was performed using TaqMan® assay reagents from Perkin-Elmer, Applied Biosystems, 50 μl RT-PCR reactions consisted of 5 μl 10× TaqMan Buffer A, 300 μM of each dNTP, 5 mM MgCl2, 10 unites of RNase inhibitor, 12.5 units of MuLV Reverse Transcriptase, 1.25 units of AmpliTaq Gold DNA Polymerase, 200 nM probe, 500 nM primers and 100 ng RNA. Reaction conditions consisted of reverse transcription at 48° C. for 10 minutes, denaturation at 95° C. for 10 minutes, and 40 thermal cycles of 95° C. for 25 seconds, and 65° C. for 1 min. Reaction products were analyzed on 4-agarose gels (Invitrogen). Fold-induction for each gene of interest was determined using the ΔΔCt method and the result is presented relative to both GAPDH and actin in each figure. The following specific probes and primer sets were used for MFGE8 (Acc#U58516): forward primer: […] NO: 1), reverse primer: […] NO: 2), and probe: […] NO: 3); GPC1 (Acc#X54232): forward primer: […] NO: 4), reverse primer: […] NO: 5), and probe: […] […] Real-time PCR with primers specific for corresponding mouse transcripts was performed and with the exceptions of SPRR3 and Aquaporin-3, all of the mouse homologs were readily detected in RNA from mouse colon. […]

DLD-1 tumors = assay: Real-time PCR (TaqMan) of RNA from DLD-1 xenograft tumors, parallel to Colo205; type: in vivo, human
Procedure: as §2

CCc1c2c(nc3ccc(OC(=O)N4CCC(N5CCCCC5)CC4)cc13)-c1cc3c(c(=O)n1C2)COC(=O)[C@]3(O)CC [CPT-11, (S)-[1,4′-bipiperidine]-1′-carboxylic acid, 4,11-diethyl-3,4,12,14-tetrahydro-4-hydroxy-3,14-dioxo-1H-pyrano[3′,4′:6,7]indolizino(1,2-b)quinolin-9-yl ester, monohydrochloride, trihydrate]
average tumor mass, drug treated vs control group ([1]; 24 hours after third injection): did not differ significantly | average mass of the tumors ([1]; 24 hours after third injection, control and drug treated groups): approximately 300 mg | mass of resected tumor (individual tumors) ([1]; CPT-11 80 mg/kg IP three times at 4 day intervals, 24 hours after final dose, monohydrochloride, trihydrate, 80 mg/kg): 0.23 grams and 0.18 grams and 0.50 grams | expression of genes listed in Table I (Colo205 and DLD-1 cells): upregulation of some of the genes listed in Table I was observed | LY6D/E48 mRNA (LY6D/E48 transcript; colorectal cancer cell line DLD-1): overexpressed LY6D/E48 MRNA in response to CPT-11 | LY6D/E48 mRNA (LY6D/E48 transcript; colorectal cancer cell line HCT116): overexpressed LY6D/E48 MRNA in response to CPT-11 | LY6D/E48 mRNA (LY6D/E48 transcript; colorectal cancer cell line HT29): overexpressed LY6D/E48 MRNA in response to CPT-11 | LY6D/E48 transcript level (LY6D/E48 transcript; cultured Colo205 cells, 10 μM CPT-11, 24 and 48 hours): elevated within 24 hours post-treatment with a further enhancement by 48 hours | LY6D/E48 mRNA (LY6D/E48 transcript; fibrosarcoma cell line HT1080): overexpressed LY6D/E48 MRNA in response to CPT-11 | LY6D/E48 transcript (LY6D/E48 transcript; human embryonic kidney cell line 293, 10 μM CPT-11): could not be detected in the absence or presence of CPT-11; also recorded: not detected | LY6D/E48 transcript (LY6D/E48 transcript; human prostate cancer PC3 cell line, 10 μM CPT-11): could not be detected in the absence or presence of CPT-11; also recorded: not detected | tumor growth [2]: transiently reduced the rate of tumor growth | mass of resected tumor (individual tumors) [3]: 0.21 and 0.1 and 0.12 | Galectin-7 mRNA (Colo205 tumors; Colo205 tumors): present and induced | transcripts MFGE8, GPC1, AQP3, CDH17, LY6D, LY6E, identified and confirmed by real-time PCR (Colo205 tumors; three CPT-11 treated Colo205 tumors vs saline controls): significant upregulation in all three CPT-11 treated tumors relative to controls | tumor-induced transcripts in normal mouse intestine (mouse colon; apart from Metallothionein (MT1G)): none of the transcripts that were induced in the tumors by CPT-11 were induced in the normal mouse intestine | cryptidin genes (mouse colon; normal colon, three animals treated with CPT-11): activated in two of the three animals treated with CPT-11 | gene activation in colon, Mu74Av2 array (mouse colon; unrelated to most genes induced in the xenografts): activation of a small number of genes in the colon | anti-LY6D/E48 signal intensity by fluorescence activated cell sorting (E48/Ly-6D; Colo205 cells, increasing concentrations of CPT-11 in vitro, 2 days): increased in a dose dependent manner | signal intensity and percentage of reactive cells by immunofluorescent microscopy (E48/Ly-6D; intact Colo205 cells, increasing CPT-11): increased with drug dosage | expression of mouse homologs of tumor-induced genes (normal colon tissue): no difference in expression of these genes was detected | Activation of Keratin23 and E48 (DLD-1 tumors; Colo205 and DLD-1 tumors): occurred in both tumor types | Neuromedin U, Annexin VIII, Transglutaminase, Aquaporin-3 and Maspin (DLD-1 tumors; Colo205 and DLD-1 tumors): all induced by SPT-11 and expressed at comparable levels in the Colo205 and DLD-1 tumors | Galectin-7 mRNA (DLD-1 tumors; DLD-1 tumors): undetectable in both treated or control DLD-1 tumors | Periplekin and Antileukoproteinase induction (DLD-1 tumors; DLD-1 tumors compared with Colo205 tumors): induced by SPT-11 to a degree less than that observed for the Colo205 tumors | genes induced by CPT-11, Colo205 and DLD-1 tumors in parallel (DLD-1 tumors; real-time PCR, FIG. 2): most of the genes were induced by CPT-11 treatment of both tumor types
